Assays:
[1] = system: Rat Basophilic Leukemia-1 (RBL-1) cell, LTC4 secretion; experiment: LTC4 released by A23187 stimulated leukemia cells (ELISA); type: cell-based; conditions: compound identified from the most active fraction
Method: Cell culture and drug treatment: Rat Basophilic Leukemia-1 (RBL-1) was purchased from Food Industry Research and Development Institute (CCRC 60198, ATCC CRL-1378), and cultured in MEM-alpha medium (Gibco, 12000). All trans-retinoic acid (1 μg/ml) was added to a 3.5 cm diameter well (6-well plate) at 2×10^6 cells/2 ml/well. Plates were then incubated at 37° C. with 5% CO2 in air for 16 hr. Various volumes of ZZ samples were added to the wells to make the appropriate final concentrations (0, 0.5, 5, 50 μg/ml) and incubated for 2 more hours. A23187 (calcium ionophore) was added to each well to reach the final concentration of 10 μM to stimulate RBL-1 cells to release LTC4/cLTs for 15 min. The mediums in the wells were centrifuged at 5000 rpm for 10 min to obtain the supernatant for ELISA assay.
LTC4/cLTs ELISA assay: The supernatants of the cell cultures were diluted into appropriate concentrations before the EIA analysis for LTC4/cLTs. Analysis was performed according to the procedures provided by the manufacturer.

Th1/Th2 immune responses = experiment: Active compound identification by in vitro bioactive screening of purification fractions; type: cell-based; conditions: compound identified from active fractions

| SMILES | effect of suppressing LTC4 [1] | increase of the IFN-γ/IL-4 gene expression ratio (Th1/Th2 immune responses) |
| --- | --- | --- |
| COc1c(-c2ccc(O)cc2)oc2cc(O)cc(O)c2c1=O [5,7-dihydroxy-2-(4-hydroxy-phenyl)-3-methoxy-chromen-4-one] | active compound |  |
| C/C1=C\CC(C)(C)/C=C/C(=O)/C(C)=C/CC1 [Zerumbone, zerumbone] |  | active ingredient |

Reference: patent US7588788B2, “Immune modulation and anti-allergy activities of Zingiber zerumbet” (Wholesome Life Science Co., Ltd., priority 2004, dated 2009)
